In US6346527B1, “Guanidine derivatives” (Fujisawa Pharmaceutical Co., Ltd., priority 1998, dated 2002):
Counter-ions that a name gives are not always drawn.

Biological target: T1, Na^+/H^+ exchange in cells (Rattus norvegicus, UniProt P26431)
T1 construct: The cells were dissociated by gentle strokes, and the resulting suspension was filtrated through six layers of surgical gauze; from tissue; host or cells: thymus cells (thymocytes) of a male SD rat
Experiment: Inhibitory activity on Na^+/H^+ exchange in cells
Assay type: cell-based
Conditions: rat (male SD) thymus cells; initial increase in intracellular pH (BCECF fluorescence) after adding NaCl (final 100 mM), 37° C.
Description: [2] Inhibitory activity on Na^+/H^+ exchange in cells
Procedure was carried out according to a similar manner to the method described in Enzymology 173, 777 (1989).
Cell preparation: One male SD strain rat weighing 250-300 g was sacrificed with the blow on the head. Then, the thymus was removed into ice-cold NaCl medium (140 mM sodium chloride, 1 mM potassium chloride, 1 mM calcium chloride, 1 mM magnesium chloride, 10 mM glucose and 20 mM N-2-hydroxyethylpiperazine-N′-2-ethanesulfonic acid (HEPES)—pH 7.3), cut in small fragments, and transferred to glass homogenizer. […]
Assay: The pellet was washed with Na-free buffer (140 mM Trimethyl ammonium, 4 mM KCl, 1 mM CaCl2, 1 mM MgSO4, 1 mM NaH2PO4, 18 mM glucose, 20 mM HEPES (pH 7.4)), then incubated with 16 μM of acetoxymethyl ester of 2′, 7′-bis(2-carboxyethyl)-5,6-carboxyfluorescein (BCECF-AM, Calbiochem Co.) and 20 mM NH4Cl at 37° C. for 30 minutes. […] Intracellular pH was measured at 37° C. with a spectrofluorometer (FS100, Kowa company, Japan) using the ratio of the emission (530 nm) obtained at 490 nm excitation wavelengths. […] The BCECF fluorescence signals were calibrated by titration with 1 M 2-(N-morpholino)ethanesulfonic acid (MES) after permeabilization of the cells with 0.5% Triton.

T1 sequence (P26431 whole entry): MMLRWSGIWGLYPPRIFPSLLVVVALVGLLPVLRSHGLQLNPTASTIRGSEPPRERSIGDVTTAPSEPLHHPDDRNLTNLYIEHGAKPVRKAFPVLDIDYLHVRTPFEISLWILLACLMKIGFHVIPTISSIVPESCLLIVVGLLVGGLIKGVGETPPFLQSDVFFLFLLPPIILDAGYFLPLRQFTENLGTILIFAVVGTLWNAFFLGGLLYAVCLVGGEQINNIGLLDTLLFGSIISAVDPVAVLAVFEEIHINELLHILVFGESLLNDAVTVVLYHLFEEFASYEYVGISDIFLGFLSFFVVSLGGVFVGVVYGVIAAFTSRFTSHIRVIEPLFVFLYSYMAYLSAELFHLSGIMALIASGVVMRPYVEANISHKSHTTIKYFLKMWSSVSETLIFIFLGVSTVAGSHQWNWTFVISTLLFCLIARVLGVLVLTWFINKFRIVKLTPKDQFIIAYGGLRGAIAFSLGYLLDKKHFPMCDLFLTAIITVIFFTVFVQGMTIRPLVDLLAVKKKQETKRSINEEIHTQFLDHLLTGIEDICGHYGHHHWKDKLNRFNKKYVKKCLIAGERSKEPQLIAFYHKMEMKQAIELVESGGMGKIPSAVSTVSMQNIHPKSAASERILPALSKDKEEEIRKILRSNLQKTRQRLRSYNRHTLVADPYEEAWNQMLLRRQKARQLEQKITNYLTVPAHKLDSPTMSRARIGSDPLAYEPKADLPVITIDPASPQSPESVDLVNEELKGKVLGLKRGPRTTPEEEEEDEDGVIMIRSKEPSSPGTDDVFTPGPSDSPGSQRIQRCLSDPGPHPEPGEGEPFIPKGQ

IC50: < 100 nM
SMILES: N=C(N)NC(=O)C1=Cc2cccc(/C=C/C(=O)O)c2OCC1 [(a), [9-[(E)-(2-Carboxyvinyl)]-2,3-dihydro-1-benzoxepin-4-carbonyl]guanidine hydrochloride]
